Each structure is given as a SMILES string. Counter-ions that a name gives are not always drawn. Bounds are passed on as bounds.

For 17 compounds, IC50 and inhibition results are on record in patent US9353107B2 (Aurigene Discovery Technologies Limited, priority 2012, dated 2016).

For this experiment, the target named is T1, recombinant human ALK enzyme (ALK WT) (Homo sapiens, UniProt Q9UM73).
T1 construct: purchased Carna Biosciences 08-518
The experiment can be described thus: ALK WT cell free enzymatic assay (TR-FRET). Format: biochemical. The settings on record: 1 μM ATP; for IC50: 10 point dose response; for inhibition at 0.1 µM: compound at 100 nM; for inhibition at 0.1 µM / inhibition at 1 µM: 30 min pre-incubation; for inhibition at 1 µM: compound at 1 μM. On the procedure: ALK Wild Type (WT) The ALK WT cell free assay was set up to evaluate the effects of these compounds as inhibitors of ALK enzyme. The enzymatic assay was standardized using recombinant human ALK enzyme (Cat#08-518) from Carna Biosciences using Ultra Light Poly GT (Cat# TRF 0100D) from Perkin Elmer as a substrate. TR-FRET (Time resolved fluorescence resonance energy transfer) detection technology was used for the read out. The final assay conditions were 50 mM HEPES pH 7.1, 10 mM MgCl2, 2 mM MnCl2, 0.01% BSA, 2.5 mM DTT, 0.1 mM Na3 VO4, 40 nM Ultra Light Poly GT, 2.5 ng ALK WT enzyme, 1 μM ATP and 125 nM Lance Eu-W1024 labeled anti phospho tyrosine antibody (Cat# AD0203, Perkin Elmer) in 384 well format. The assay reaction time with the substrate was 30 minutes after which the antibody detection mix is added. The TR-FRET signal (Excitation at 340 nm, Emission at 615 nm and 665 nm) was read with 50 μs delay time on Victor^3 V fluorimeter. The data is calculated using the ratio of reading at 665 nM to 615 nM. The final concentration of DMSO was 1% in the assay. Compounds were screened at 100 nM and 1 μM concentrations with pre-incubation of the enzymes with compound for 30 minutes. Each individual IC50 was determined using 10 point dose response curve generated by GraphPad Prism software Version 4 (San Diego, Calif., USA) using non linear regression curve fit for sigmoidal dose response (variable slope). Percentage inhibition at concentrations of 100 nM and 1.0 μM are given in table along with the IC50 (nM) details for selected examples.
On the technique in general: In TR-FRET formats the signal depends on donor and acceptor labels being close together.

T1 sequence (Q9UM73 1058-1620 limits assumed): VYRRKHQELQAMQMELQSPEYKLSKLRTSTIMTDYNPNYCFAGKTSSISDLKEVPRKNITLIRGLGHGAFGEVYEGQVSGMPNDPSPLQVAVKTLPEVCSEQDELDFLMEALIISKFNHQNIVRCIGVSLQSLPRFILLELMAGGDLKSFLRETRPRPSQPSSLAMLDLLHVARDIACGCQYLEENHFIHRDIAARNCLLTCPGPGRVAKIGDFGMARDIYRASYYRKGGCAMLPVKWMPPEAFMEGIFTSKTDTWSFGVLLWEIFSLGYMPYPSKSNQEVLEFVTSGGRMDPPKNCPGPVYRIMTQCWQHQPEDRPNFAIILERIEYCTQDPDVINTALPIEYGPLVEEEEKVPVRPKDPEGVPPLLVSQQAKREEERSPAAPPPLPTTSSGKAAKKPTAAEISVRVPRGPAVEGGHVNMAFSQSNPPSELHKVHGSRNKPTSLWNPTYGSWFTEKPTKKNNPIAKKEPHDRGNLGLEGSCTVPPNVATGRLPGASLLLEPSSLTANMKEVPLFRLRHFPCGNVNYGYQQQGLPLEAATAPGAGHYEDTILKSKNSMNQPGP

As for `Cc1nn(Cc2cccc(F)c2)c(C)c1-c1c[nH]c2ncc(-c3ccc(OCCO)c(NS(C)(=O)=O)c3)cc12` [Example 24, N-(5-(3-(1-(3-fluorobenzyl)-3,5-dimethyl-1H-pyrazol-4-yl)-1H-pyrrolo[2,3-b]pyridin-5-yl)-2-(2-hydroxyethoxyl)phenyl)methanesulfonamide], the half-maximal inhibitory concentration (IC50) (commonly the concentration that gives 50% inhibition) was less than 50 nM; the inhibition (as a rule, the relative decrease from the control value, in per cent) at 0.1 µM worked out at 53%; the inhibition at 1 µM was 96%.

Turning to `Cc1nn(Cc2cccc(F)c2)c(C)c1-c1c[nH]c2ncc(-c3ccc(OCCCO)c(NS(C)(=O)=O)c3)cc12` [Example 25, N-(5-(3-(1-(3-fluorobenzyl)-3,5-dimethyl-1H-pyrazol-4-yl)-1H-pyrrolo[2,3-b]pyridin-5-yl)-2-(3-hydroxypropoxyl)phenyl)methanesulfonamide], the IC50 is less than 50 nM, the inhibition at 0.1 µM turned out to be 86% and the inhibition at 1 µM amounted to 93%.

On to `Cc1nn(Cc2cccc(F)c2)c(C)c1-c1c[nH]c2ncc(-c3ccc(OCCCN(C)C)c(NS(C)(=O)=O)c3)cc12` [Example 26, N-(2-(3-(dimethylamino)propoxy)-5-(3-(1-(3-fluorobenzyl)-3,5-dimethyl-1H-pyrazol-4-yl)-1H-pyrrolo[2,3-b]pyridin-5-yl)phenyl)methanesulfonamide], for which the half-inhibitory concentration (IC50) is less than 50 nM, the inhibition at 0.1 µM worked out at 96% and the inhibition at 1 µM was determined as 100%.

`COc1ccc(-c2cc3c(-c4c(C)nn(Cc5cc(F)cc(F)c5)c4C)c[nH]c3nc2C2CC2)cc1NS(C)(=O)=O` [Example 27, N-(5-(6-cyclopropyl-3-(1-(3,5-difluorobenzyl)-3,5-dimethyl-1H-pyrazol-4-yl)-1H-pyrrolo[2,3-b]pyridin-5-yl)-2-methoxyphenyl)methanesulfonamide]: the inhibition at 0.1 µM stood at 9% and the inhibition at 1 µM came to 8%.

`COc1ccc(-c2cc3c(-c4c(C)nn(Cc5cccc(F)c5)c4C)c[nH]c3nc2C2CC2)cc1NS(C)(=O)=O` [Example 28, N-(5-(6-cyclopropyl-3-(1-(3-fluorobenzyl)-3,5-dimethyl-1H-pyrazol-4-yl)-1H-pyrrolo[2,3-b]pyridin-5-yl)-2-methoxyphenyl)methanesulfonamide]: the inhibition at 0.1 µM was 14% and the inhibition at 1 µM came out at 49%.

In the case of `COc1ccc(-c2cnc3[nH]cc(-c4c(C)nn(Cc5cccc(F)c5)c4C)c3c2)c(OC)c1NS(C)(=O)=O` [Example 29, N-(3-(3-(1-(3-fluorobenzyl)-3,5-dimethyl-1H-pyrazol-4-yl)-1H-pyrrolo[2,3-b]pyridin-5-yl)-2,6-dimethoxyphenyl)methanesulfonamide], the inhibition at 0.1 µM amounted to 28% and the inhibition at 1 µM was found to be 48%.

On to `COc1ccc(-c2cnc3[nH]c(C4CC4)c(-c4c(C)nn(Cc5cccc(F)c5)c4C)c3c2)cc1NS(C)(=O)=O` [Example 30, N-(5-(2-cyclopropyl-3-(1-(3-fluorobenzyl)-3,5-dimethyl-1H-pyrazol-4-yl)-1H-pyrrolo[2,3-b]pyridin-5-yl)-2-methoxyphenyl)methanesulfonamide], for which the inhibition at 0.1 µM came out at 21% and the inhibition at 1 µM was 21%.

On to `CC(C)(C)OC(=O)N1CCN(c2cccc(-c3cnc4[nH]cc(-c5cnn(Cc6cc(F)ccc6F)c5)c4c3)c2)CC1` [Example 31, tert-butyl 4-(3-(3-(1-(2,5-difluorobenzyl)-1 h-pyrazol-4-yl)-1 h-pyrrolo[2,3-b]pyridin-5-yl)phenyl)piperazine-1-carboxylate], for which the 50% inhibitory concentration (IC50) was more than 250 nM and the inhibition at 1 µM amounted to 55%.

Take `Fc1ccc(F)c(Cn2cc(-c3c[nH]c4ncc(-c5cccc(N6CCNCC6)c5)cc34)cn2)c1` [Example 32, 3-(1-(2,5-difluorobenzyl)-1H-pyrazol-4-yl)-5-(3-(piperazin-1-yl)phenyl)-1H-pyrrolo[2,3-b]pyridine]: the concentration for half-maximal inhibition (IC50) is less than 50 nM and the inhibition at 1 µM was 99%.

As for `Fc1cccc(Cn2cc(-c3c[nH]c4ncc(-c5cccc(N6CCNCC6)c5)cc34)cn2)c1` [Example 33, 3-(1-(3-fluorobenzyl)-1H-pyrazol-4-yl)-5-(3-(piperazin-1-yl)phenyl)-1H-pyrrolo[2,3-b]pyridine hydrochloride], the half-maximal inhibitory concentration (IC50) is less than 50 nM, the inhibition at 0.1 µM was 97% and the inhibition at 1 µM came out at 100%.

Consider `N#CCCN1CCN(c2cccc(-c3cnc4[nH]cc(-c5cnn(Cc6cccc(F)c6)c5)c4c3)c2)CC1` [Example 34, 3-(4-(3-(3-(1-(3-fluorobenzyl)-1H-pyrazol-4-yl)-1H-pyrrolo[2,3-b]pyridin-5-yl)phenyl)piperazin-1-yl) propanenitrile], for which the IC50 is less than 50 nM, the inhibition at 0.1 µM came to 91% and the inhibition at 1 µM was 99%.

Regarding `CC(C)N1CCN(c2cccc(-c3cnc4[nH]cc(-c5cnn(Cc6cccc(F)c6)c5)c4c3)c2)CC1` [Example 35, 3-(1-(3-fluorobenzyl)-1H-pyrazol-4-yl)-5-(3-(4-isopropylpiperazin-1-yl)phenyl)-1H-pyrrolo[2,3-b]pyridine], the concentration for half-maximal inhibition (IC50) was less than 50 nM, the inhibition at 0.1 µM came to 98% and the inhibition at 1 µM amounted to 99%.

Consider `CN1CCN(c2cccc(-c3cnc4[nH]cc(-c5cnn(Cc6cccc(F)c6)c5)c4c3)c2)CC1` [Example 36, 3-(1-(3-fluorobenzyl)-1H-pyrazol-4-yl)-5-(3-(4-methylpiperazin-1-yl)phenyl)-1H-pyrrolo[2,3-b]pyridine], for which the IC50 was less than 50 nM, the inhibition at 0.1 µM came to 96% and the inhibition at 1 µM is 99%.

For `Cc1nn(Cc2cccc(F)c2)cc1-c1c[nH]c2ncc(-c3cccc(N4CCNCC4)c3)cc12` [Example 37, 3-(1-(3-fluorobenzyl)-3-methyl-1H-pyrazol-4-yl)-5-(3-(piperazin-1-yl)phenyl)-1H-pyrrolo[2,3-b]pyridine], the half-inhibitory concentration (IC50) is less than 50 nM, the inhibition at 0.1 µM turned out to be 93% and the inhibition at 1 µM is 98%.

For `Cc1nn(Cc2cccc(F)c2)c(C)c1-c1c[nH]c2ncc(-c3cccc(N4CCNCC4)c3)cc12` [Example 38, 3-(1-(3-fluorobenzyl)-3,5-dimethyl-1H-pyrazol-4-yl)-5-(3-(piperazin-1-yl)phenyl)-1H-pyrrolo[2,3-b]pyridine], the IC50 is less than 50 nM, the inhibition at 0.1 µM was found to be 87% and the inhibition at 1 µM came out at 99%.

On to `Fc1cccc(Cn2cc(-c3c[nH]c4ncc(-c5ccc(N6CCNCC6)cc5)cc34)cn2)c1` [Example 39, 3-(1-(3-fluorobenzyl)-1H-pyrazol-4-yl)-5-(4-(piperazin-1-yl)phenyl)-1H-pyrrolo[2,3-b]pyridine hydrochloride], for which the IC50 is less than 50 nM, the inhibition at 0.1 µM stood at 92% and the inhibition at 1 µM was found to be 99%.

With `Cc1nn(Cc2cccc(F)c2)c(C)c1-c1c[nH]c2ncc(-c3ccc(N4CCNCC4)cc3)cc12` [Example 40, 3-(1-(3-fluorobenzyl)-3,5-dimethyl-1H-pyrazol-4-yl)-5-(4-(piperazin-1-yl)phenyl)-1H-pyrrolo[2,3-b]pyridine hydrochloride], the concentration for half-maximal inhibition (IC50) is less than 50 nM, the inhibition at 0.1 µM was determined as 94% and the inhibition at 1 µM stood at 100%.
